From patent publication EP3807270B1, “NOVEL HETEROARYL HETEROCYCLYL COMPOUNDS FOR THE TREATMENT OF AUTOIMMUNE DISEASE” (F. Hoffmann-La Roche AG, priority 2018, dated 2019)
pIC50: −log10 of the molar value.

molecular target: T1, human TLR8 (Homo sapiens, UniProt Q9NR97); test: HEK293-Blue-hTLR-8 cells assay (SEAP reporter, R848 stimulation); format: cell-based; details: HEK293-Blue-hTLR8 cells, R848, 20 hrs; read-out: HEK/hTLR8 IC50
T1 construct: host or cells: HEK293 (HEK-Blue)
T1 sequence (Q9NR97 27-1041): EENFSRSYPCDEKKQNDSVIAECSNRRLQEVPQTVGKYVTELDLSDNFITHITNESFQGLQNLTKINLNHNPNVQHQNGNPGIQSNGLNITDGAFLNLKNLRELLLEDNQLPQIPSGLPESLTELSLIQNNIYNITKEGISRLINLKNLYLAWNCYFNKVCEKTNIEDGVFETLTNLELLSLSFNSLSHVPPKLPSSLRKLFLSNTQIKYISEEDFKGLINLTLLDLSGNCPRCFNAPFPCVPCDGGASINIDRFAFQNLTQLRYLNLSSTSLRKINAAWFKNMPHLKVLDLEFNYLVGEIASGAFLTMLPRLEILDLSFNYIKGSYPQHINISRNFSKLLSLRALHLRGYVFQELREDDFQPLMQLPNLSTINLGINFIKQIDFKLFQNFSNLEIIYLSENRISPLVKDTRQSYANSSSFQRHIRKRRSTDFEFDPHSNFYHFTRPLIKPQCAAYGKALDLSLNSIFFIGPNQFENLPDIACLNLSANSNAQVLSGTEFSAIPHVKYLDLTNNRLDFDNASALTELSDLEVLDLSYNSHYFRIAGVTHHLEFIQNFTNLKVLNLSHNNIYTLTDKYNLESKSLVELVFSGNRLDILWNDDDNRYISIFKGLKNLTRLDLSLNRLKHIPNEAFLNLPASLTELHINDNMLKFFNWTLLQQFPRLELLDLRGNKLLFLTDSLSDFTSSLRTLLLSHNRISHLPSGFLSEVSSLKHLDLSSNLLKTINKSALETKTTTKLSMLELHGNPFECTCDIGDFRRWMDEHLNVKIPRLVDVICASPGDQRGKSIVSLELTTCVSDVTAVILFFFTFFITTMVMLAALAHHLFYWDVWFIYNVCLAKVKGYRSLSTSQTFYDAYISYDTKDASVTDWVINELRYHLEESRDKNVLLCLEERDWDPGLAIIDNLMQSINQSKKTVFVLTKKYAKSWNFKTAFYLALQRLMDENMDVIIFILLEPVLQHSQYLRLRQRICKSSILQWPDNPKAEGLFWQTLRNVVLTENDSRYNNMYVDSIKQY
From the text: A stable HEK293-Blue-hTLR-8 cell line was purchased from InvivoGen (Cat.#: hkb-htlr8, San Diego, California, USA). These cells were originally designed for studying the stimulation of human TLR8 by monitoring the activation of NF-κB. A SEAP (secreted embryonic alkaline phosphatase) reporter gene was placed under the control of the IFN-β minimal promoter fused to five NF-κB and AP-1-binding sites. The SEAP was induced by activating NF-κB and AP-1 via stimulating HEK-Blue hTLR8 cells with TLR8 ligands. Therefore, the reporter expression was declined by TLR8 antagonist under the stimulation of a ligand, such as R848, for incubation of 20 hrs. The cell culture supernatant SEAP reporter activity was determined using QUANTI-Blue™ kit (Cat.#: rep-qb1, Invivogen, San Diego, Ca, USA) at a wavelength of 640 nm, a detection medium that turns purple or blue in the presence of alkaline phosphatase.
HEK293-Blue-hTLR8 cells were incubated at a density of 250,000-450,000 cells/mL in a volume of 170 µL in a 96-well plate in Dulbecco's Modified Eagle's medium (DMEM) containing 4.5 g/L glucose, 50 U/mL penicillin, […], […], 2 mM L-glutamine, 10% (v/v) heat-inactivated fetal bovine serum with addition of 20 µL test compound in a serial dilution in the presence of final DMSO at 1% and 10 µL of 60uM R848 in above DMEM, perform incubation under 37 °C in a CO2 incubator for 20 hrs. Then 20 µL of the supernatant from each well was incubated with 180 µL Quanti-blue substrate solution at 37°C for 2 hrs and the absorbance was read at 620-655 nm using a spectrophotometer. The signaling pathway that TLR8 activation leads to downstream NF-κB activation has been widely accepted, and therefore similar reporter assay was modified for evaluating TLR8 antagonist.

Row | Compound | pIC50
1 | C[C@@H]1CN(c2ccc(C#N)c3ncccc23)C[C@H](CN2CCN(c3ccc4c(c3)C(O)CN(C)C4)CC2)O1 (stereo partly drawn) [Example 59, 5-[(2S,6R)-2-[[4-(4-hydroxy-2-methyl-3,4-dihydro-1H-isoquinolin-6-yl)piperazin-1-yl]methyl]-6-methyl-morpholin-4-yl]quinoline-8-carbonitrile] | 7.96
2 | Cc1nc2c(nc1N1CCN(C[C@H]3CN(c4ccc(C#N)c5ncccc45)C[C@@H](C)O3)CC1)CCNC2 [Example 60, 5-[(2R,6S)-2-methyl-6-[[4-(3-methyl-5,6,7,8-tetrahydropyrido[3,4-b]pyrazin-2-yl)piperazin-1-yl]methyl]morpholin-4-yl]quinoline-8-carbonitrile] | 7.85
3 | C[C@@H]1CN(c2ccc(C#N)c3ncccc23)C[C@H](CN2CCN(c3cc4c(cn3)CNCC4)CC2)O1 [Example 19, 5-[(2R,6S)-2-methyl-6-[[4-(5,6,7,8-tetrahydro-2,7-naphthyridin-3-yl)piperazin-1-yl]methyl]morpholin-4-yl]quinoline-8-carbonitrile] | 8.40
4 | C[C@@H]1CN(c2ccc(C#N)c3ncccc23)C[C@H](CN2CCN(c3ccc4c(c3)CNC4)C(CO)C2)O1 (stereo partly drawn) [Example 13, 5-[(2S,6R)-2-[[3-(hydroxymethyl)-4-isoindolin-5-yl-piperazin-1-yl]methyl]-6-methyl-morpholin-4-yl]quinoline-8-carbonitrile] | 7.66
5 | C[C@@H]1CN(c2ccc(C#N)c3ncccc23)C[C@H](CN2CC3(C2)CN(c2cnc4c(n2)CCNC4)CCO3)O1 [Example 50, 5-[(2R,6S)-2-methyl-6-[[8-(5,6,7,8-tetrahydropyrido[3,4-b]pyrazin-2-yl)-5-oxa-2,8-diazaspiro [3.5]nonan-2-yl]methyl]morpholin-4-yl] quinoline-8-carbonitrile] | > 8.52
6 | C[C@@H]1CN(c2ccc(C#N)c3ncccc23)C[C@H](CN2CCN(c3ncc4c(n3)CCNC4)CC2)O1 [Example 29, 5-[(2R,6S)-2-methyl-6-[[4-(5,6,7,8-tetrahydropyrido[4,3-d]pyrimidin-2-yl)piperazin-1-yl]methyl]morpholin-4-yl]quinoline-8-carbonitrile] | > 8.52
7 | C[C@@H]1Cc2cnc(N3CCN(C[C@H]4CN(c5ccc(C#N)c6nccnc56)C[C@@H](C)O4)CC3)cc2CN1 (single isomer, unassigned) [Example 82] | 8.52
8 | C[C@@H]1CN(c2ccc(C#N)c3ncccc23)C[C@H](CN2CCN(c3cc4c(cn3)CNC4)CC2)O1 [Example 18, 5-[(2S,6R)-2-[[4-(2,3-dihydro-1H-pyrrolo[3,4-c]pyridin-6-yl)piperazin-1-yl]methyl]-6-methyl-morpholin-4-yl] quinoline-8-carbonitrile] | 8.05
9 | C[C@@H]1CN(c2ccc(C#N)c3ncccc23)C[C@H](CN2CCN(c3ccc4c(c3)CNC4)CC2CO)O1 (stereo partly drawn) [Example 15, 5-[(2S,6R)-2-[[2-(hydroxymethyl)-4-isoindolin-5-yl-piperazin-1-yl]methyl]-6-methyl-morpholin-4-yl]quinoline-8-carbonitrile] | 7.96
10 | C[C@@H]1CN(c2ccc(C#N)c3ncccc23)C[C@H](CN2CCN(c3ccc4c(n3)CCNC4)C[C@H](O)C2)O1 (single isomer, unassigned) [Example 35A] | 7.62
11 | C[C@@H]1CN(c2ccc(C#N)c3ncccc23)C[C@H](CN2CCN(c3cc4c(cn3)CCN[C@@H]4C)CC2)O1 (single isomer, unassigned) [Example 74] | 8.40
12 | C[C@@H]1CN(c2ccc(C#N)c3ncccc23)C[C@H](CN2CCN(c3ncc4c(n3)CNC4)CC2)O1 [Example 11, 5-[(2S,6R)-2-[[4-(6,7-dihydro-5Hpyrrolo[3,4-d]pyrimidin-2-yl)piperazin-1-yl]methyl]-6-methyl-morpholin-4-yl]quinoline-8-carbonitrile] | 8.10
13 | C[C@@H]1CN(c2ccc(C#N)c3ncccc23)C[C@H](CN2CCN(c3nccc4c3CCNC4)CC2)O1 [Example 62, 5-[(2R,6S)-2-methyl-6-[[4-(5,6,7,8-tetrahydro-2,6-naphthyridin-1-yl)piperazin-1-yl]methyl]morpholin-4-yl]quinoline-8-carbonitrile] | 7.85
14 | COC1CNCc2ccc(N3CCN(C[C@H]4CN(c5ccc(C#N)c6ncccc56)C[C@@H](C)O4)CC3)cc21 (stereo partly drawn) [Example 58, 5-[(2S,6R)-2-[[4-(4-methoxy-1,2,3,4-tetrahydroisoquinolin-6-yl)piperazin-1-yl]methyl]-6-methyl-morpholin-4-yl]quinoline-8-carbonitrile] | 7.82
15 | C[C@@H]1Cc2cnc(N3CCN(C[C@H]4CN(c5ccc(C#N)c6ncccc56)C[C@@H](C)O4)CC3)cc2CN1 (single isomer, unassigned) [Example 77] | 8.15

More lines, in order of rising pIC50, values ahead:

Row | pIC50 | Compound
16 | 7.68 | C[C@@H]1CN(c2ccc(C#N)c3ncccc23)C[C@H](CN2CC3[C@H](C2)OCCN3c2ccc3c(n2)CCNC3)O1 (stereo in doubt) [Example 53, cis-5-[(2R,6S)-2-methyl-6-[[4-(5,6,7,8-tetrahydro-1,6-naphthyridin-2-yl)-2,3,4a,5,7,7a-hexahydropyrrolo[3,4-b][1,4]oxazin-6-yl]methyl]morpholin-4-yl]quinoline-8-carbonitrile]
17 | 7.70 | C[C@@H]1CN(c2ccc(C#N)c3ncccc23)C[C@H](CN2CCN(c3ccc4c(c3)CCNC4)CC2)O1 [Example 5, 5-[(2R,6S)-2-methyl-6-[[4-(1,2,3,4-tetrahydroisoquinolin-6-yl)piperazin-1-yl]methyl]morpholin-4-yl]quinoline-8-carbonitrile]
18 | 8.00 | C[C@@H]1CN(c2ccc(C#N)c3ncccc23)C[C@H](CN2CC3(C2)CN(c2ccc4c(n2)CNCC4)CCO3)O1 [Example 45, 5-[(2R,6S)-2-methyl-6-[[8-(5,6,7,8-tetrahydro-1,7-naphthyridin-2-yl)-5-oxa-2,8-diazaspiro[3.5]nonan-2-yl]methyl]morpholin-4-yl]quinoline-8-carbonitrile]
19 | 8.05 | C[C@@H]1CN(c2ccc(C#N)c3ncccc23)C[C@H](CN2CCN(c3ccc4c(n3)[C@@H](C)NC4)CC2)O1 (single isomer, unassigned) [Example 65]
20 | 8.05 | C[C@@H]1CN(c2ccc(C#N)c3ncccc23)C[C@H](CN2CCN(c3cnc4c(c3)CNCC4)CC2)O1 [Example 21, 5-[(2R,6S)-2-methyl-6-[[4-(5,6,7,8-tetrahydro-1,6-naphthyridin-3-yl)piperazin-1-yl]methyl]morpholin-4-yl]quinoline-8-carbonitrile]
21 | 8.15 | C[C@@H]1CN(c2ccc(C#N)c3nccnc23)C[C@H](CN2CCN(c3cc4c(cn3)CCNC4)CC2)O1 [Example 80, 8-[(2R,6S)-2-methyl-6-[[4-(5,6,7,8-tetrahydro-2,6-naphthyridin-3-yl)piperazin-1-yl]methyl]morpholin-4-yl]quinoxaline-5-carbonitrile]
22 | 8.15 | C[C@@H]1CN(c2ccc(C#N)c3ncccc23)C[C@H](CN2CCN(c3cc4c(cn3)[C@@H](C)NCC4)CC2)O1 (single isomer, unassigned) [Example 73]
23 | 8.22 | C[C@@H]1CN(c2ccc(C#N)c3ncccc23)C[C@H](CN2CCN(c3ccc4c(n3)CCN(C)C4)CC2)O1 [Example 34, 5-[(2R,6S)-2-methyl-6-[[4-(6-methyl-7,8-dihydro-5H-1,6-naphthyridin-2-yl)piperazin-1-yl]methyl]morpholin-4-yl]quinoline-8-carbonitrile]
